Consider one compound from BindingDB's records for doi:10.1021/jm1006148 (Sri International, 2010).

For this assay, the target named is Neuronal acetylcholine receptor subunit alpha-7 (Rattus norvegicus, UniProt Q05941). Put plainly: Displacement of [3H]epibatidine from alpha7 nAChR in rat brain membranes after 2 hrs.

Where only a bound is given, the exact number is not on record here.

Chain of Neuronal acetylcholine receptor subunit alpha-7 (Q05941 whole entry): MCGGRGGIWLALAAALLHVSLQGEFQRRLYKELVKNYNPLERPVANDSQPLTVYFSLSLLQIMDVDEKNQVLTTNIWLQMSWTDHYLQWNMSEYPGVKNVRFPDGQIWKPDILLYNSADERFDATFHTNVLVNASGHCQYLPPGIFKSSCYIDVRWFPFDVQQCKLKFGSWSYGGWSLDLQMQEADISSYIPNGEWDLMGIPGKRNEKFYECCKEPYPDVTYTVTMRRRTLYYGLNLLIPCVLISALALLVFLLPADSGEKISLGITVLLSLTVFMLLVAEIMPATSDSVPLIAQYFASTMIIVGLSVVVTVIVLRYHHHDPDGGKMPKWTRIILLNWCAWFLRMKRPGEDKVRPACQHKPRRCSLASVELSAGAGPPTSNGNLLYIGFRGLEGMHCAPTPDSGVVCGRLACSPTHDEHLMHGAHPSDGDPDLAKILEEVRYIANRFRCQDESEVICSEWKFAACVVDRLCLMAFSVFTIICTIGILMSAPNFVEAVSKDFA

One may read the Ki as the dissociation constant of the complex between target and ligand, obtained from inhibition or displacement. Regarding `CN1C2CCCC1CC(N1C(=O)Cc3ccccc31)C2` (stereo unspecified) [1-(1-(9-methyl-9-azabicyclo[3.3.1]nonan-3-yl)indolin-2-one], the Ki is greater than 100 µM.
